Measured values: patent US5753635A, “Purine derivatives and their use as anti-coagulants” (Berlex Laboratories, Inc., priority 1996, dated 1998)
Non-standard residues stand in square brackets, D forms with d. Residues, ends and D or L forms follow the SMILES beside them. *: point of attachment. pNA = O=[N+]([O-])c1ccc(N*)cc1

How the values were obtained:
[1] = biological target: T1, Human tissue plasminogen activator (tPA) (Two chains, Sigma) (Homo sapiens, UniProt P00750); test: In vitro chromogenic assay for tissue plasminogen activator; format: biochemical; conditions: substrate concentration stated equal to Km; 10 nM tPA, pH 7.5, ambient temperature; read-out: Km (S2288)
T1 construct: purchased Sigma
T1 sequence (P00750 311-562 limits assumed): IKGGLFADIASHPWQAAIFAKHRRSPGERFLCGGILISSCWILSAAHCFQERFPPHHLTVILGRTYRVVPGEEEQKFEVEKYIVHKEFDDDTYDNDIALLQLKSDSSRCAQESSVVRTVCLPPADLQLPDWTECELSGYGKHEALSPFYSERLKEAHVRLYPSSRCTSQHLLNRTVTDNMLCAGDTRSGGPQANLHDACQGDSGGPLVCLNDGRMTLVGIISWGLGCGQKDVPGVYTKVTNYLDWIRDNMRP
T1 sequence (P00750 36-310 partner limits assumed): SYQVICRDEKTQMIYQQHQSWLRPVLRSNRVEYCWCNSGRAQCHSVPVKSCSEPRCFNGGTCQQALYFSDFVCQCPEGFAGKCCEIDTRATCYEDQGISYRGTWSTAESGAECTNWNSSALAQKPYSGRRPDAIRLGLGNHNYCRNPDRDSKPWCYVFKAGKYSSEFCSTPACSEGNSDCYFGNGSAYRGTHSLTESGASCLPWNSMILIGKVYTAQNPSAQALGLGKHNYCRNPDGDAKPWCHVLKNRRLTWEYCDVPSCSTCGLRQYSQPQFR
Method: (§1) The activities were determined as an initial rate of cleavage of the peptide p-nitroanilide by the enzyme. The cleavage product, p-nitroaniline, absorbs at 405 nm with a molar extinction coefficient of 9920 M^-1 cm^-1.
(§2) 50 mM TrisHCl, 150 mM NaCl, 2.5 mM CaCl2, and 0.1% polyethylene glycol 6000, pH 7.5.
3. Human tissue plasminogen activator (tPA) (Two chains, Sigma) stock solution: 1 mg/mL, stored at -80° C. (working solution (2×): 1361 ng/mL in assay buffer, prepare prior to use).
3. S2288 (tPA assay) stock solution: 10 mM in dH2 O, stored at 4° C. (working solution (4×):
1484 μM in assay buffer).
Assays were performed in 96-well microtiter plates in a total volume of 200 μl. […] Concentrations of the standard inhibitor compound in the assay were from 5 μM to 0.021 μM in 1 to 3 dilution. Concentration of the test compounds in the assay typically were from 10 μM to 0.041 μM in 1 to 3 dilution. […]
(§3) The enzyme kinetics were measured at 405 nm at 10 seconds intervals for five minutes in a THERMOmax plate reader at ambient temperature.
(§4) Enzyme rates were calculated as mOD/min based on the first two minutes readings. The IC50 values were determined by fitting the data to the log-logit equation (linear) or the Morrison equation (non-linear) with an EXCEL spread-sheet. […]

Human thrombin = biological target: T2, Human thrombin (Homo sapiens, UniProt P00734); test: In vitro chromogenic assay for thrombin; format: biochemical; conditions: substrate concentration stated equal to Km; 20 nM thrombin, pH 7.5, ambient temperature; read-out: Km (S2302)
T2 construct: Human thrombin stock solution; purchased Enzyme Research Lab
Method: as §1, §2
2. Human thrombin stock solution: Stored at -80° C. (working solution (2×): 1200 ng/mL or 40 nM in assay buffer, prepare prior to use).
2. S2302 (Thrombin assay) stock solution: 10 mM in dH2 O, stored at 4° C. (working solution (4×): 1200 μM in assay buffer).
Assays were performed in 96-well microtiter plates in a total volume of 200 μl. […] Concentrations of the standard inhibitor compound in the assay were from 5 μM to 0.021 μM in 1 to 3 dilution. Concentration of the test compounds in the assay typically were from 10 μM to 0.041 μM in 1 to 3 dilution. For potent test compounds, the concentrations used in the factor Xa assays were further diluted 100 fold (100 nM to 0.41 nM) or 1000 fold (10 nM to 0.041 nM). […]
as §3, §4

| Km [1] | Km (Human thrombin) | Compound |
| --- | --- | --- |
| 371 µM |  | CC[C@@H](C)[C@@H](N)C(=O)N1CCC[C@H]1C(=O)N[C@@H](CCCN=C(N)N)C(=O)Nc1ccc([N+](=O)[O-])cc1 [Example S2288] (H-[dI]-Pro-Arg-pNA) |
|  | 300 µM | N=C(N)NCCC[C@H](NC(=O)[C@H](Cc1ccccc1)NC(=O)[C@H]1CCCN1)C(=O)Nc1ccc([N+](=O)[O-])cc1 [Example S2302] (H-[dP]-Phe-Arg-pNA) |
